We go through 19 compounds from patent publication US8288428B2, “Compounds as cannabinoid receptor ligands” (Abbott Laboratories, priority 2009, dated 2012).

Assay [1] concerns animal models of pain. Conditions: animal models of acute thermal, persistent, inflammatory and neuropathic pain; cited from earlier work.
The target of assay [2] is T1, rat CB2 receptors (Rattus norvegicus, UniProt Q9QZN9).
T1 construct: expressed in transfected cells; membrane preparation
T1 sequence (Q9QZN9 1-360): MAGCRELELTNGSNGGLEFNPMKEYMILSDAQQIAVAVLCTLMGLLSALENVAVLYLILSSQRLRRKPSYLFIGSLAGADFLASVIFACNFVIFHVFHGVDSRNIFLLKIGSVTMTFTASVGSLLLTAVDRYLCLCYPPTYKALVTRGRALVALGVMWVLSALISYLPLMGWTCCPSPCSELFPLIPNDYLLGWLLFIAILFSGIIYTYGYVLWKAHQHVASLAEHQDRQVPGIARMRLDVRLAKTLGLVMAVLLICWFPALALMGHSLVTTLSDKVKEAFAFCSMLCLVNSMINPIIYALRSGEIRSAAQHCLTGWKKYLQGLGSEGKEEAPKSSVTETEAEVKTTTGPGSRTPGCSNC
Briefly: rat CB2 radioligand binding assay. On the procedure:
(§1) (i) In Vitro Methods—CB2 and CB1 Radioligand Binding Assays:
(§2) The CB1 and CB2 radioligand binding assays described herein are utilized to ascertain the selectivity of compounds of the present application for binding to CB2 relative to CB1 receptors.
(§3) HEK293 cells stably expressing rat CB2 receptors were grown until a confluent monolayer was formed. Briefly, the cells were harvested and homogenized in TE buffer (50 mM Tris-HCl, 1 mM MgCl2, and 1 mM EDTA) using a polytron for 2×10 second bursts in the presence of protease inhibitors, followed by centrifugation at 45,000×g for 20 minutes. The final membrane pellet was re-homogenized in storage buffer (50 mM Tris-HCl, 1 mM MgCl2, and 1 mM EDTA and 10% sucrose) and frozen at −78° C. until used. Saturation binding reactions were initiated by the addition of membrane preparation (protein concentration of 20 μg/well for rat CB2) into wells of a deep well plate containing [^3H]CP-55,940 (120 Ci/mmol, a nonselective CB agonist commercially available from Tocris) in assay buffer (50 mM Tris, 2.5 mM EDTA, 5 mM MgCl2, and 0.5 mg/mL fatty acid free BSA, pH 7.4). After 45 min incubation at 30° C., binding reaction was terminated by the addition of 300 μL/well of cold assay buffer followed by rapid vacuum filtration through a UniFilter-96 GF/C filter plates (pre-soaked in 1 mg/mL BSA for 2 hours). The bound activity was counted in a TopCount using Microscint-20. Saturation experiments were conducted with twelve concentrations of [^3H]CP-55,940 ranging from 0.01 to 8 nM. Competition experiments were conducted with 0.5 nM [^3H]CP-55,940 and five concentrations of displacing ligands selected from the range of 0.01 nM to 10 μM. The addition of 10 μM unlabeled CP-55,940 (Tocris, Ellisville, Mo.) was used to assess nonspecific binding.

Assay [3] addresses T2, human CB2 receptors (Homo sapiens, UniProt P34972).
T2 construct: expressed in transfected cells; membrane preparation
Description: human CB2 radioligand binding assay. On the procedure:
as §1, §2
as §3, with “expressing human” for “expressing rat”, “of 5” for “of 20”, “for human” for “for rat”, “After 90” for “After 45”, “concentrations (0.01” for “concentrations of displacing ligands selected from the range of 0.01”, “10 μM) of displacing ligands.” for “10 μM.”

Assay [4] relates to rodent models of pain. Conditions: rodent models of neuropathic, incisional, chronic and acute inflammatory pain; cited from earlier work.
The subject of assay [5] is rat formalin model of persistent pain. The note with it: cited from earlier work.
The subject of assay [6] is microglial activation. Conditions: in vitro; cited from earlier work.
Assay [7] concerns apolipoprotein E knockout mice. Conditions: low doses; cited from earlier work.
Setting [8] is: competition with 0.5 nM [3H]CP-55,940, HEK293 membranes expressing human CB2, read-out: human CB2 binding (Ki).

Like-named read-outs stand apart in the source and are kept apart here.

T2 sequence (P34972 whole entry): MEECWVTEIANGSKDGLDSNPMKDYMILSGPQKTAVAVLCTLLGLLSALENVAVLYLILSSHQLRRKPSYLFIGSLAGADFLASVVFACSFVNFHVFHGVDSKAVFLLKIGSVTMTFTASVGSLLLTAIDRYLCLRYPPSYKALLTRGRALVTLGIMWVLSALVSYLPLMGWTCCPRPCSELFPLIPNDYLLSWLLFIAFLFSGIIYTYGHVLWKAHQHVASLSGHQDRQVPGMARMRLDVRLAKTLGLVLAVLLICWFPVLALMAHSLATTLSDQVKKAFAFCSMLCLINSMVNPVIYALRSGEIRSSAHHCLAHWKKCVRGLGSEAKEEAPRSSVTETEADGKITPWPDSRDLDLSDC

On to `CN1CCCCC1Cn1cc(C(=O)c2cc([N+](=O)[O-])ccc2I)c2ccccc21` (stereo not drawn) [AM-1241], for which the analgesic efficacy entry in assay [1] is reported as “robust analgesic efficacy”.
On to `Cn1c(C(C)(C)C)c/c(=N\C(=O)c2cc(C(F)(F)F)ccc2CN2CC(C)(O)C2)n1CC1CC1` [Example 10, N-[(3E)-5-tert-butyl-2-(cyclopropylmethyl)-1-methyl-1,2-dihydro-3H-pyrazol-3-ylidene]-2-[(3-hydroxy-3-methylazetidin-1-yl)methyl]-5-(trifluoromethyl)benzamide], for which the Ki in assay [2] worked out at 108 nM; in assay [3], 186 nM.
Regarding `CCCCn1/c(=N/C(=O)c2cc(C(F)(F)F)ccc2CCC(=O)OCC)cc(C(C)(C)C)n1C` [Example 11, ethyl 3-[2-({[(3E)-2-butyl-5-tert-butyl-1-methyl-1,2-dihydro-3H-pyrazol-3-ylidene]amino}carbonyl)-4-(trifluoromethyl)phenyl]propanoate], the Ki was determined as 32.5 nM in assay [2] and 53.3 nM in assay [3].
On to `CCCCn1/c(=N/C(=O)c2cc(C(F)(F)F)ccc2CN2CC(C)(O)C2)cc(C(C)(C)C)n1C` [Example 12, N-[(3E)-2-butyl-5-tert-butyl-1-methyl-1,2-dihydro-3H-pyrazol-3-ylidene]-2-[(3-hydroxy-3-methylazetidin-1-yl)methyl]-5-(trifluoromethyl)benzamide], for which the Ki in assay [2] (competition with 0.5 nM [3H]CP-55,940, HEK293 membranes expressing rat CB2, read-out: rat CB2 binding (Ki)) amounted to 177 nM; in assay [3] (setting [8]), 142 nM.
`COCCCn1/c(=N/C(=O)c2cc(C(F)(F)F)ccc2/C=C/C(C)(C)O)cc(C(C)(C)C)n1C` [Example 14, N-[(3E)-5-tert-butyl-2-(3-methoxypropyl)-1-methyl-1,2-dihydro-3H-pyrazol-3-ylidene]-2-[(1E)-3-hydroxy-3-methylbut-1-enyl]-5-(trifluoromethyl)benzamide]: the results for the Ki in assay [2] and in assay [3] (setting [8]) were 30.6 nM and 111 nM, respectively.
On to `CCCCn1nc(C(C)(C)C)s/c1=N\C(=O)c1cc(C(F)(F)F)ccc1CN1CC(O)C1` [Example 16, N-[(2Z)-3-butyl-5-tert-butyl-1,3,4-thiadiazol-2(3H)-ylidene]-2-[(3-hydroxyazetidin-1-yl)methyl]-5-(trifluoromethyl)benzamide], for which the results for the Ki in assay [2] and in assay [3] were 0.8 nM and 1.63 nM, respectively.
The like results for `CCCCn1nc(C(C)(C)C)s/c1=N\C(=O)c1cc(C(F)(F)F)ccc1CN1CC(C)(O)C1` [Example 17, N-[(2Z)-3-butyl-5-tert-butyl-1,3,4-thiadiazol-2(3H)-ylidene]-2-[(3-hydroxy-3-methylazetidin-1-yl)methyl]-5-(trifluoromethyl)benzamide] were, in that order, 1.45 nM and 5.9 nM.
With `CCCCn1nc(C(C)(C)C)s/c1=N\C(=O)c1cc(C(F)(F)F)ccc1CN1CC[C@H](O)C1` [Example 18, N-[(2Z)-3-butyl-5-tert-butyl-1,3,4-thiadiazol-2(3H)-ylidene]-2-{[(3S)-3-hydroxypyrrolidin-1-yl]methyl}-5-(trifluoromethyl)benzamide], the Ki in assay [2] is 1.59 nM; in assay [3] it was 14.9 nM.
For the compound `CCCCn1nc(C(C)(C)C)s/c1=N\C(=O)c1cc(C(F)(F)F)ccc1CN1CC[C@@H](O)C1` [Example 19, N-[(2Z)-3-butyl-5-tert-butyl-1,3,4-thiadiazol-2(3H)-ylidene]-2-{[(3R)-3-hydroxypyrrolidin-1-yl]methyl}-5-(trifluoromethyl)benzamide], the figures for the Ki in assay [2] and in assay [3] were 3.85 nM and 15.3 nM, respectively.
As to `CCCCn1nc(C(C)(C)C)s/c1=N\C(=O)c1cc(C(F)(F)F)ccc1CO` [Example 20, N-[(2Z)-3-butyl-5-tert-butyl-1,3,4-thiadiazol-2(3H)-ylidene]-2-(hydroxymethyl)-5-(trifluoromethyl)benzamide], the Ki in assay [2] was 0.57 nM; in assay [3], 1.89 nM.
On the same counts, the results for `CCCCn1nc(C(C)(C)C)s/c1=N\C(=O)c1cc(C(F)(F)F)ccc1CN1CC(C(=O)OC)C1` [Example 21, methyl 1-[2-({[(2Z)-3-butyl-5-tert-butyl-1,3,4-thiadiazol-2(3H)-ylidene]amino}carbonyl)-4-(trifluoromethyl)benzyl]azetidine-3-carboxylate] are 1.79 nM and 3.93 nM.
On the same counts, the results for `CCCCn1nc(C(C)(C)C)s/c1=N\C(=O)c1cc(C(F)(F)F)ccc1CN1CC(C(C)(C)O)C1` [Example 22, N-[(2Z)-3-butyl-5-tert-butyl-1,3,4-thiadiazol-2(3H)-ylidene]-2-{[3-(1-hydroxy-1-methylethyl)azetidin-1-yl]methyl}-5-(trifluoromethyl)benzamide] are 2.14 nM and 5.33 nM.
Take `CCCCn1/c(=N/C(=O)c2cc(C(F)(F)F)ccc2CC(=O)OC(C)(C)C)cc(C(C)(C)C)n1C` [Example 23, tert-butyl[2-({[(3E)-2-butyl-5-tert-butyl-1-methyl-1,2-dihydro-3H-pyrazol-3-ylidene]amino}carbonyl)-4-(trifluoromethyl)phenyl]acetate]: the Ki in assay [2] was found to be 80.2 nM; in assay [3] (setting [8]), 269 nM.
As for `CCCCn1/c(=N/C(=O)c2cc(C(F)(F)F)ccc2CN2CC(O)C2)cc(C(C)(C)C)n1C` [Example 24, N-[(3E)-2-butyl-5-tert-butyl-1-methyl-1,2-dihydro-3H-pyrazol-3-ylidene]-2-[(3-hydroxyazetidin-1-yl)methyl]-5-(trifluoromethyl)benzamide], the figures for the Ki in assay [2] and in assay [3] (setting [8]) were 87.5 nM and 117 nM, respectively.
Regarding `CCCCn1/c(=N/C(=O)c2cc(C(F)(F)F)ccc2COCC(C)(C)O)cc(C(C)(C)C)n1C` [Example 25, N-[(3E)-2-butyl-5-tert-butyl-1-methyl-1,2-dihydro-3H-pyrazol-3-ylidene]-2-[(2-hydroxy-2-methylpropoxy)methyl]-5-(trifluoromethyl)benzamide], the figures for the Ki in assay [2] and in assay [3] were 17.8 nM and 25 nM, respectively.
For `COc1ccc2c(c1)c(CCN1CCOCC1)c(C)n2C(=O)c1cccc(Cl)c1Cl` [GW405833], in assay [4], the “efficacy in pain models” value is “efficacious”.
For the compound `CCCCCCC(C)(C)c1cc(OC)c([C@@H]2C=C(CO)[C@@H]3C[C@H]2C3(C)C)c(OC)c1` [HU-308], in assay [5], the antinociceptive response result is given as “elicits an antinociceptive response”.
Consider `CCCC(C)(C)c1ccc2c(c1)OC(C)(C)[C@@H]1CC=C(C)C[C@@H]21` [JWH-133], for which the “effect on β-amyloid-induced microglial activation and neurotoxicity” value in assay [6] is “abrogated”.
On to (−)-Δ^9-Tetrahydrocannabinol [THC], for which the “progression of atherosclerotic lesions” value in assay [7] is on record as “slowed the progression”.
